Source: patent US11633379B2, “Methods of inhibiting PCSK9” (TRUSTEES OF DARTMOUTH COLLEGE, priority 2017, dated 2023)
Several values for one entry are separate records, joined by “and”; a condition that tells them apart may be missing. Equal entries are not always repeated.

Tests used:
PCSK9 [1] = experiment: Basal_PCSK9 HepG2, primary SP and CRC (secreted PCSK9, ELISA); assay type: cell-based, human; conditions: for Primary SP Basal_PCSK9 HepG2 SP % Inhib @ 2 μM / Primary SP Basal_PCSK9 HepG2 SP % Inhib @ 5 μM / Primary SP Basal_PCSK9 HepG2 SP % Inhib @ 50 μM: HepG2, single point; for IC50: HepG2, concentration response curve; for Primary SP Basal_PCSK9 HepG2 SP % Inhib @ 5 μM / accumulation of PCSK9 in culture media: 5 μM; for accumulation of PCSK9 in culture media: HepG2 cells, FIGS. 2A-2B; for activity rating in words (PCSK9 inhibition, Table 2): summary of Table 2 data
Procedure: To study the effect of the compounds on PCSK9 secretion we used 1×10^6 HepG2 cells in 6-well culture plates, followed by incubation with media only, media+0.1% DMSO or Media+5 uM of 31/33/34/35 in 0.1% DMSO and collection of 50 ul of media at 8, 16, 24 and 40 hours or incubation with increasing concentration (0.2-50 μM) of 34 in 0.1% DMSO for 24 hours and collection of 50 ul of media. The collected media was analyzed for PCSK9 levels using commercially available ELISA kit (MBL-international, catalog # CY-8079) following the manufacturer instruction.
(§1) The below data (Table 2) was generated using the assays as discussed in Examples 1-2. Blanks mean no testing was performed. […] For the SP assays, the higher the number, the higher the inhibition, e.g., the better the activity of the compound. Compounds with a determined IC50 are particularly active, the IC50 values were determined via dose response curve (under the heading CRC which stands for concentration response curve aka dose response curve).

PCSK9 [2] = experiment: PCSK9 AlphaLisa Huh7 SP and CRC; assay type: cell-based
PCSK9 [3] = experiment: Secondary Basal_PCSK9 ELISA RPH; assay type: cell-based
Procedure: as §1

Row | SMILES | Primary SP Basal_PCSK9 HepG2 SP % Inhib @ 5 μM (PCSK9 [1]) [%] | Primary SP PCSK9 AlphaLisa Huh7 SP % Inhib @ 10 μM (PCSK9 [2]; Huh7) | other results
1 | Cn1c2c(c3ccccc31)C(c1ccccc1)C1C=CC2C1 (centres unmarked) [Compound 1] |  |  | Primary SP Basal_PCSK9 HepG2 SP % Inhib @ 2 μM (PCSK9 [1]): 0%
2 | COc1ccc(C2c3c(n(C)c4ccccc34)C3C=CC2C3)cc1 (centres unmarked) [Compound 2] | 39.51 |  | 
3 | Cn1c2c(c3ccccc31)C(c1ccc(C(F)(F)F)cc1)C1C=CC2C1 (centres unmarked) [Compound 3] | −0.4577 |  | 
4 | Cn1c2c(c3ccccc31)C(c1ccco1)C1C=CC2C1 (centres unmarked) [Compound 4] | 11.69 |  | 
5 | Cn1c2c(c3ccccc31)C(c1cccs1)C1C=CC2C1 (centres unmarked) [Compound 5] | 30.55 |  | 
6 | CCC1c2c(n(C)c3ccccc23)C2C=CC1C2 (centres unmarked) [Compound 6] | −5.193 |  | 
7 | Cn1c2c(c3ccccc31)C1(CCCC1)C1C=CC2C1 (centres unmarked) [Compound 7] |  | −34.71% | 
8 | Cn1c2c(c3ccccc31)C1(CCCCC1)C1C=CC2C1 (centres unmarked) [Compound 8] |  | −44.02% | 
9 | Cn1c2c(c3ccccc31)C1(CCCCC1)C1C=CC2C1 (centres unmarked) [Compound 9] | 21.92 |  | 
10 | CC1=C(C)CC2(CCCCC2)c2c(n(C)c3ccccc23)C1 [Compound 10] | 11.61 |  | 
11 | CC1=CCc2c(c3ccccc3n2C)C(c2ccccc2)C1 (centres unmarked) [Compound 11] | 38.95 |  | 
12 | CC1C=CC(C)C(c2ccccc2)c2c1n(C)c1ccccc21 (centres unmarked) [Compound 12] |  | −261.1% | 
13 | CC1(C)c2c(n(Cc3ccccc3)c3ccccc23)C2C=CC1C2 (centres unmarked) [Compound 13] | 18.09 |  | 
14 | CC1(C)c2c([nH]c3ccccc23)C2C=CC1C2 (centres unmarked) [Compound 14] |  |  | Primary SP Basal_PCSK9 HepG2 SP % Inhib @ 2 μM (PCSK9 [1]): 47.9%; IC50 (PCSK9 [1]): > 50 µM
15 | COC(=O)c1ccc2[nH]c3c(c2c1)C(C)(C)C1C=CC3C1 (centres unmarked) [Compound 15] |  | −117.8% | 
16 | CC1(C)c2c([nH]c3ccc(I)cc23)C2C=CC1C2 (centres unmarked) [Compound 16] | 9.989 |  | 
17 | CC1(C)c2c([nH]c3ccc(Br)cc23)C2C=CC1C2 (centres unmarked) [Compound 17] | 37.33 |  | 
18 | CC1(C)c2c([nH]c3ccc(Cl)cc23)C2C=CC1C2 (centres unmarked) [Compound 18] | 21.64 |  | 
19 | Cn1c2c(c3ccccc31)C1(CCCCC1)CC2c1ccccc1 (centres unmarked) [Compound 19] | 7.268 |  | 
20 | COc1ccc(C2CC3(CCCCC3)c3c2n(C)c2ccccc32)cc1 (centres unmarked) [Compound 20] | 15.69 |  | 
21 | Cc1ccc(C2CC3(CCCCC3)c3c2n(C)c2ccccc32)cc1 (centres unmarked) [Compound 21] | 12.18 |  | 

Row | SMILES | Primary SP Basal_PCSK9 HepG2 SP % Inhib @ 5 μM (PCSK9 [1]) [%] | Primary SP PCSK9 AlphaLisa Huh7 SP % Inhib @ 10 μM (PCSK9 [2]; Huh7) | other results
22 | Cn1c2c(c3ccccc31)C1(CCCCC1)CC2c1ccc2ccccc2c1 (centres unmarked) [Compound 22] | 77.2 |  | IC50 (PCSK9 [2]; Huh7, concentration response curve, read-out: Primary CRC PCSK9 AlphaLisa Huh7 CRC Rel IC50): > 40 µM
23 | CC1(C)c2c([nH]c3ccc(F)cc23)C2C=CC1C2 (centres unmarked) [Compound 23] |  | −35.06% | 
24 | CC1(C)c2c([nH]c3ccc(O)cc23)C2C=CC1C2 (centres unmarked) [Compound 24] | 4.997 |  | 
25 | CC1(C)c2c([nH]c3ccc(C(F)(F)F)cc23)C2C=CC1C2 (centres unmarked) [Compound 25] |  | −334% | 
26 | Cc1ccc(C2CC(C)(C)c3c2[nH]c2ccccc32)cc1 (centres unmarked) [Compound 31] | 26.2 |  | accumulation of PCSK9 in culture media (PCSK9 [1]): significantly reduced accumulation of PCSK9 in culture media in a time-dependent and concentration-dependent manner; Primary SP Basal_PCSK9 HepG2 SP % Inhib @ 50 μM (PCSK9 [1]): 87.5%; IC50 (PCSK9 [1]): 4.12 µM; activity rating in words (PCSK9 inhibition, Table 2) (PCSK9 [1]): particularly strongly active; Secondary Basal_PCSK9 ELISA RPH % Inhib @ 100 μM (PCSK9 [3]): 19.03% and 22.14%
27 | c1ccc(C2CC3(CCCCC3)c3c2[nH]c2ccccc32)cc1 (centres unmarked) [Compound 32] | 8.8 |  | Primary SP Basal_PCSK9 HepG2 SP % Inhib @ 50 μM (PCSK9 [1]): 11.9%; activity rating in words (PCSK9 inhibition, Table 2) (PCSK9 [1]): weakly active
28 | Cc1ccc(C2CC3(CCCCC3)c3c2[nH]c2ccccc32)cc1 (centres unmarked) [Compound 33] | 18.9 |  | accumulation of PCSK9 in culture media (PCSK9 [1]): significantly reduced accumulation of PCSK9 in culture media in a time-dependent and concentration-dependent manner; Primary SP Basal_PCSK9 HepG2 SP % Inhib @ 50 μM (PCSK9 [1]): 53.4%; IC50 (PCSK9 [1]): 2.12 µM; activity rating in words (PCSK9 inhibition, Table 2) (PCSK9 [1]): particularly strongly active; Secondary Basal_PCSK9 ELISA RPH % Inhib @ 20 μM (PCSK9 [3]; 20 μM): −4.143% and 2.541% and 3.284% and −5.595%; Secondary Basal_PCSK9 ELISA RPH % Inhib @ 100 μM (PCSK9 [3]): 25.95% and 29.77%
29 | Cc1ccc(C2CC3(CCCCC3)c3c2[nH]c2ccc(C)cc32)cc1 (centres unmarked) [Compound 35] | 26.4 |  | accumulation of PCSK9 in culture media (PCSK9 [1]): significantly reduced accumulation of PCSK9 in culture media in a time-dependent and concentration-dependent manner; Primary SP Basal_PCSK9 HepG2 SP % Inhib @ 50 μM (PCSK9 [1]): 90%; IC50 (PCSK9 [1]): 3.14 µM; activity rating in words (PCSK9 inhibition, Table 2) (PCSK9 [1]): particularly strongly active
30 | Cc1ccc(C2CC(C)(C)c3c2[nH]c2ccc(C)cc32)cc1 (centres unmarked) [Compound 36] | 24.5 |  | Primary SP Basal_PCSK9 HepG2 SP % Inhib @ 50 μM (PCSK9 [1]): 96.5%; IC50 (PCSK9 [1]): 18.6 µM
31 | COC(=O)[C@@H]1CC[C@H](O)[C@@]2(C)c3ccccc3N(C)[C@@H]12 [Compound 49] |  |  | Primary SP Basal_PCSK9 HepG2 SP % Inhib @ 50 μM (PCSK9 [1]): −13.7% and −22.9%
32 | CC1(C)C(=O)C[C@@]2(C)c3ccccc3N(Cc3ccccc3)[C@@]12C [Compound 53] |  |  | Primary SP Basal_PCSK9 HepG2 SP % Inhib @ 50 μM (PCSK9 [1]): −20.1% and −22.3%
33 | CN1c2ccccc2[C@]2(C)Cc3ccccc3N[C@H]12 [Compound 54] |  | −11.97% | 
34 | C[C@@]12Cc3ccccc3N[C@@H]1N(Cc1ccccc1)c1ccccc12 [Compound 55] |  | −22.6% | 
35 | CCC[C@@]12Cc3ccccc3N[C@@H]1N(C)c1ccccc12 [Compound 56] |  | 32.56% and 23.45% | 
36 | CN1c2ccccc2[C@]2(Cc3ccccc3)Cc3ccccc3N[C@H]12 [Compound 57] |  | 17.71% | 
37 | Cc1cccc2c1N[C@@H]1N(C)c3ccccc3[C@]1(C)C2 [Compound 58] |  | −2.718% | 
38 | Cc1ccc2c(c1)C[C@@]1(C)c3ccccc3N(C)[C@H]1N2 [Compound 59] |  |  | Primary SP PCSK9 AlphaLisa Huh7 SP % Inhib @ 10.1 μM (PCSK9 [2]; 10.1 μM, Huh7): −5.307%
39 | CN1c2ccccc2[C@]2(C)Cc3cc(Cl)ccc3N[C@H]12 [Compound 60] |  | 9.09% | 
40 | C=CCc1ccc2c(c1)C[C@@]1(C)c3ccccc3N(C)[C@H]1N2 [Compound 61] |  | −16.91% | 
41 | CN1c2ccc(Br)cc2[C@]2(C)Cc3ccccc3N[C@H]12 [Compound 62] |  | 10.55% and 20.08% | 
